Measured values reported in patent US11051515B2, “3-acyl-benzamides and their use as herbicides” (Bayer Aktiengesellschaft, priority 2017, dated 2021).

Key:
[1] = system: ABUTH; assay: Post-emergence action against ABUTH; format: in vivo, Abutilon theophrasti; settings: post-emergence, dosage 80 g/ha, visual assessment about 3 weeks after treatment vs untreated controls
Procedure, shortened: (§1)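 Weeds grown in sandy loam in greenhouse, treated at one-leaf stage (2–3 weeks after sowing) with WP or EC formulations sprayed as aqueous suspension/emulsion at 600 to […] water with 0.2% wetting agent. Visual rating after about 3 weeks versus untreated controls, as % herbicidal action (100% = plants dead, 0% = like control).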

[2] = system: CYPES; assay: Pre-emergence action against CYPES; format: in vivo, Cyperus esculentus; settings: Cyperus esculentus, 504 h; pre-emergence, dosage 320 g/ha, scored visually after 3 weeks vs untreated controls; read-out: Pre-emergence action against CYPES (herbicidal activity)
Procedure, shortened: (§2)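 Seeds sown in sandy loam in wood-fiber pots and covered with soil. Greenhouse growth; visual damage scored after 3 weeks versus untreated controls (100% = dead, 0% = like control).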

[3] = system: ALOMY; assay: Post-emergence action against ALOMY; format: in vivo, Alopecurus myosuroides; settings: Dosage 80 g/ha, post-emergence
Procedure, shortened: as §1

[4] = system: STEME; assay: Post-emergence action against STEME; format: in vivo, Stellaria media; settings: post-emergence, dosage 80 g/ha
Procedure, shortened: as §1

[5] = system: SETVI; assay: Post-emergence action against SETVI; format: in vivo, Setaria viridis; settings: post-emergence, dosage 80 g/ha, visual assessment about 3 weeks after treatment vs untreated controls
Procedure, shortened: as §1

[6] = system: MATIN; assay: Post-emergence action against MATIN; format: in vivo, Matricaria inodora; settings: post-emergence, dosage 80 g/ha, visual assessment about 3 weeks after treatment vs untreated controls
Procedure, shortened: as §1

[7] = system: AVEFA; assay: Pre-emergence action against AVEFA; format: in vivo, Avena fatua; settings: dosage 320 g/ha, scored visually after 3 weeks vs untreated controls
Procedure, shortened: as §2

[8] = system: ALOMY; assay: Pre-emergence action against ALOMY; format: in vivo, Alopecurus myosuroides; settings: dosage 320 g/ha, pre-emergence, scored visually after 3 weeks vs untreated controls, 100% = plants have died, 0% = like control plants
Procedure, shortened: as §2

[9] = system: PHBPU; assay: Pre-emergence action against PHBPU; format: in vivo, Pharbitis purpurea; settings: Dosage 320 g/ha, pre-emergence
Procedure, shortened: as §2

[10] = system: VERPE; assay: Pre-emergence action against VERPE; format: in vivo, Veronica persica; settings: Dosage 320 g/ha, pre-emergence
Procedure, shortened: as §2

[11] = system: AVEFA; assay: Post-emergence action against AVEFA; format: in vivo, Avena fatua; settings: post-emergence, dosage 80 g/ha, visual assessment about 3 weeks after treatment vs untreated controls
Procedure, shortened: as §1

[12] = system: MATIN; assay: Pre-emergence action against MATIN; format: in vivo, Matricaria inodora; settings: Dosage 320 g/ha, pre-emergence
Procedure, shortened: as §2

[13] = system: VIOTR; assay: Post-emergence action against VIOTR; format: in vivo, Viola tricolor; settings: post-emergence, dosage 80 g/ha
Procedure, shortened: as §1

[14] = system: SETVI; assay: Pre-emergence action against SETVI; format: in vivo, Setaria viridis; settings: pre-emergence, dosage 320 g/ha, scored visually after 3 weeks vs untreated controls
Procedure, shortened: as §2

[15] = system: AMARE; assay: Pre-emergence action against AMARE; format: in vivo, Amaranthus retroflexus; settings: pre-emergence, dosage 320 g/ha, scored visually after 3 weeks vs untreated controls
Procedure, shortened: as §2

[16] = system: CYPES; assay: Post-emergence action against CYPES; format: in vivo, Cyperus esculentus; settings: Cyperus esculentus, 504 h; post-emergence, dosage 80 g/ha, visual assessment about 3 weeks after treatment vs untreated controls; read-out: Post-emergence action against CYPES (herbicidal action in percent)
Procedure, shortened: as §1

[17] = system: PHBPU; assay: Post-emergence action against PHBPU; format: in vivo, Pharbitis purpurea; settings: post-emergence, dosage 80 g/ha
Procedure, shortened: as §1

[18] = system: ECHCG; assay: Post-emergence action against ECHCG; format: in vivo, Echinochloa crus-galli; settings: post-emergence, dosage 80 g/ha, visual assessment about 3 weeks after treatment vs untreated controls
Procedure, shortened: as §1

[19] = system: ECHCG; assay: Pre-emergence action against ECHCG; format: in vivo, Echinochloa crus-galli; settings: pre-emergence, dosage 320 g/ha, scored visually after 3 weeks vs untreated controls
Procedure, shortened: as §2

[20] = system: LOLMU; assay: Post-emergence action against LOLMU; format: in vivo, Lolium multiflorum; settings: Lolium multiflorum, 504 h, dosage 80 g/ha, visual assessment about 3 weeks after treatment vs untreated controls, read-out: Post-emergence action against LOLMU (herbicidal action in percent)
Description: Seeds of monocotyledonous and dicotyledonous weed and crop plants are laid out in sandy loam soil in wood-fiber pots, covered with soil and cultivated in a greenhouse under good growth conditions. 2 to 3 weeks after sowing, the test plants are treated at the one-leaf stage. The compounds of the invention, formulated in the form of wettable powders (WP) or as emulsion concentrates (EC), are then sprayed onto the green parts of the plants in the form of an aqueous suspension or emulsion at a water application rate equating to […], with addition of 0.2% wetting agent. After the test plants have been left to stand in the greenhouse under optimal growth conditions for about 3 weeks, the action of the preparations is assessed visually in comparison to untreated controls (herbicidal action in percent (%): 100% activity=the plants have died, 0% activity=like control plants). […] At the same time, inventive compounds leave Gramineae crops such as barley, wheat, rye, millet/Sorghum, corn or rice virtually undamaged when applied post-emergence, even at high active ingredient dosages. In addition, some substances are also harmless to dicotyledonous crops such as soya, cotton, oilseed rape, sugar beet or potatoes. Some of the compounds according to the invention have high selectivity and are therefore suitable for controlling unwanted vegetation in agricultural crops by the post-emergence method. The data of Tables B18 to B34 below illustrate, in an exemplary manner, the […] herbicidal action of the compounds according to the invention, the herbicidal activity being stated in percent.

[21] = system: VIOTR; assay: Pre-emergence action against VIOTR; format: in vivo, Viola tricolor; settings: Dosage 320 g/ha, pre-emergence
Procedure, shortened: as §2

[22] = system: ABUTH; assay: Pre-emergence action against ABUTH; format: in vivo, Abutilon theophrasti; settings: pre-emergence, dosage 320 g/ha, scored visually after 3 weeks vs untreated controls
Procedure, shortened: as §2

[23] = system: AMARE; assay: Post-emergence action against AMARE; format: in vivo, Amaranthus retroflexus; settings: post-emergence, dosage 80 g/ha, visual assessment about 3 weeks after treatment vs untreated controls
Procedure, shortened: as §1

[24] = system: POLCO; assay: Post-emergence action against POLCO; format: in vivo, Polygonum convolvulus; settings: post-emergence, dosage 80 g/ha
Procedure, shortened: as §1

[25] = system: VERPE; assay: Post-emergence action against VERPE; format: in vivo, Veronica persica; settings: dosage 80 g/ha
Procedure, shortened: as §1

[26] = system: DIGSA; assay: Post-emergence action against DIGSA; format: in vivo, Digitaria sanguinalis; settings: dosage 80 g/ha, visual assessment about 3 weeks after treatment vs untreated controls
Procedure, shortened: as §1

[27] = system: DIGSA; assay: Pre-emergence action against DIGSA; format: in vivo, Digitaria sanguinalis; settings: dosage 320 g/ha, scored visually after 3 weeks vs untreated controls
Procedure, shortened: as §2

[28] = system: HORMU; assay: Pre-emergence action against HORMU; format: in vivo, Hordeum murinum; settings: Dosage 320 g/ha
Procedure, shortened: as §2

[29] = system: LOLRI; assay: Pre-emergence action against LOLRI; format: in vivo, Lolium rigidum; settings: dosage 320 g/ha, scored visually after 3 weeks vs untreated controls
Procedure, shortened: as §2

[30] = system: STEME; assay: Pre-emergence action against STEME; format: in vivo, Stellaria media; settings: Dosage 320 g/ha, pre-emergence
Procedure, shortened: as §2

CCC(=O)c1c(C(F)(F)F)ccc(C(=O)Nc2nnnn2C)c1Cl [1-138]
90%: pest or weed control at 80 g/ha ([5]; Setaria viridis, 504 h, read-out: Post-emergence action against SETVI (herbicidal action in percent)) | pest or weed control at 320 g/ha ([9]; Ipomoea purpurea, 504 h) | pest or weed control at 80 g/ha [16] | pest or weed control at 80 g/ha ([18]; Echinochloa crus-galli, 504 h, read-out: Post-emergence action against ECHCG (herbicidal action in percent)) | pest or weed control at 80 g/ha ([25]; Veronica persica, 504 h)
100%: pest or weed control at 320 g/ha [2] | pest or weed control at 80 g/ha ([3]; Alopecurus myosuroides, 504 h) | pest or weed control at 80 g/ha ([4]; Stellaria media, 504 h) | pest or weed control at 80 g/ha ([6]; Tripleurospermum inodorum, 504 h, read-out: Post-emergence action against MATIN (herbicidal action in percent)) | pest or weed control at 320 g/ha ([7]; Avena fatua, 504 h, read-out: Pre-emergence action against AVEFA (herbicidal activity)) | pest or weed control at 320 g/ha ([8]; Alopecurus myosuroides, 504 h, read-out: Pre-emergence action against ALOMY (herbicidal activity in percent)) | pest or weed control at 320 g/ha ([10]; Veronica persica, 504 h) | pest or weed control at 80 g/ha ([11]; Avena fatua, 504 h, read-out: Post-emergence action against AVEFA (herbicidal action in percent)) | pest or weed control at 320 g/ha ([12]; Tripleurospermum inodorum, 504 h) | pest or weed control at 80 g/ha ([13]; Viola tricolor, 504 h) | pest or weed control at 320 g/ha ([14]; Setaria viridis, 504 h, read-out: SETVI (Table B8, pre-emergence herbicidal activity)) | pest or weed control at 320 g/ha ([15]; Amaranthus retroflexus, 504 h, read-out: Pre-emergence action against AMARE (herbicidal activity)) | pest or weed control at 80 g/ha ([17]; Ipomoea purpurea, 504 h) | pest or weed control at 320 g/ha ([19]; Echinochloa crus-galli, 504 h, read-out: Pre-emergence action against ECHCG (herbicidal activity)) | pest or weed control at 80 g/ha [20] | pest or weed control at 320 g/ha ([21]; Viola tricolor, 504 h) | pest or weed control at 320 g/ha ([22]; Abutilon theophrasti, 504 h, read-out: Pre-emergence action against ABUTH (herbicidal activity))
80%: pest or weed control at 80 g/ha ([1]; Abutilon theophrasti, 504 h, read-out: Post-emergence action against ABUTH (herbicidal action in percent)) | pest or weed control at 80 g/ha ([23]; Amaranthus retroflexus, 504 h, read-out: Post-emergence action against AMARE (herbicidal action in percent)) | pest or weed control at 80 g/ha ([24]; Fallopia convolvulus, 504 h)

CCCC(=O)c1c(C(F)(F)F)ccc(C(=O)Nc2nnnn2CC)c1C [2-16]
80: Post-emergence action against POLCO [24] | Post-emergence action against VERPE [25]
100%: Post-emergence action against ABUTH (herbicidal action in percent) [1] | Post-emergence action against MATIN (herbicidal action in percent) [6] | Pre-emergence action against DIGSA (herbicidal activity) [27] | Pre-emergence action against VERPE [10] | Pre-emergence action against AMARE (herbicidal activity) [15] | Pre-emergence action against ECHCG (herbicidal activity) [19] | Pre-emergence action against ABUTH (herbicidal activity) [22] | Post-emergence action against AMARE (herbicidal action in percent) [23]
80%: Post-emergence action against ALOMY [3] | Pre-emergence action against HORMU [28]
90%: Post-emergence action against DIGSA (herbicidal action in percent) [26] | Post-emergence action against SETVI (herbicidal action in percent) [5] | Pre-emergence action against AVEFA (herbicidal activity) [7] | Pre-emergence action against ALOMY (herbicidal activity in percent) [8] | Pre-emergence action against PHBPU [9] | Post-emergence action against AVEFA (herbicidal action in percent) [11] | Pre-emergence action against MATIN [12] | SETVI (Table B8, pre-emergence herbicidal activity) [14] | Post-emergence action against ECHCG (herbicidal action in percent) [18] | Pre-emergence action against LOLRI (herbicidal activity) [29] | Pre-emergence action against VIOTR [21] | Pre-emergence action against STEME [30]
100: Post-emergence action against STEME [4] | Post-emergence action against VIOTR [13] | Post-emergence action against PHBPU [17]
